Test results: US20090298866A1, “Indole Compounds” (priority 2006, published 2009)
Counter-ions that a name gives are not always drawn.

Assays:
human EP3 receptor = target: T1, human EP3 receptor (Homo sapiens, UniProt P43115); assay: human EP3 calcium mobilisation assay; assay type: cell-based; conditions: heading: functional pKi; human EP3, CHO-K1 cells, PGE2-induced calcium mobilisation; averages of a number of experiments
T1 construct: expressed in transfected cells; host or cells: CHO-K1
T1 sequence (P43115 1-390): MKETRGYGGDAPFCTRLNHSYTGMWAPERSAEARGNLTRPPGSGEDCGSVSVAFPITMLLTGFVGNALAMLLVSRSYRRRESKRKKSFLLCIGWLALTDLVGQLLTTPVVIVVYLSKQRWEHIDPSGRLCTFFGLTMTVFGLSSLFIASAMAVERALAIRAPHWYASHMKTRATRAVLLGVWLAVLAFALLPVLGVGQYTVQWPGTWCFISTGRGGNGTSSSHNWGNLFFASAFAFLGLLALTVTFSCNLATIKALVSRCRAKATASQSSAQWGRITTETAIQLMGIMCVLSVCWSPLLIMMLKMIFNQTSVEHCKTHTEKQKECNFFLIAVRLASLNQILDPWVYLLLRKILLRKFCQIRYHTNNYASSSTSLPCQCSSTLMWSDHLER
Description: (§1) Briefly, the antagonist properties of compounds are assessed by their ability to inhibit the mobilisation of intracellular calcium ([Ca^2+]i) in response to activation of EP1 or EP3 receptors by the natural agonist hormone prostaglandin E2 (PGE2). Increasing concentrations of antagonist reduce the amount of calcium that a given concentration of PGE2 can mobilise. The net effect is to displace the PGE2 concentration-effect curve to higher concentrations of PGE2. The amount of calcium produced is assessed using a calcium-sensitive fluorescent dye such as Fluo-4, AM and a suitable instrument such as a Fluorimetric Imaging Plate Reader (FLIPR). Increasing amounts of [Ca^2+]i produced by receptor activation increase the amount of fluorescence produced by the dye and give rise to an increasing signal. The signal may be detected using the FLIPR instrument and the data generated may be analysed with suitable curve-fitting software.
(§2) The human EP1 or EP3 calcium mobilisation assay (hereafter referred to as ‘the calcium assay’) utilises Chinese hamster ovary-K1 (CHO-K1) cells into which a stable (pCIN; BioTechniques 20 (1996): 102-110) vector containing either EP1 or EP3 cDNA has previously been transfected. Cells are cultured in suitable flasks containing culture medium such as DMEM:F-12 supplemented with 10% v/v foetal calf serum, 2 mM L-glutamine, 0.25 mg/ml geneticin, 100 μM flurbiprofen and 10 μg/ml puromycin.
(§3) For assay, cells are harvested using a proprietary reagent that dislodges cells such as Versene. Cells are re-suspended in a suitable quantity of fresh culture media for introduction into a 384-well plate. Following incubation for 24 hours at 37° C. the culture media is replaced with a medium containing Fluo-4 and the detergent pluronic acid, and a further incubation takes place. Concentrations of compounds are then added to the plate in order to construct concentration-effect curves. This may be performed on the FLIPR in order to assess the agonist properties of the compounds. Concentrations of PGE2 are then added to the plate in order to assess the antagonist properties of the compounds.
(§4) The data so generated may be analysed by means of a computerised curve-fitting routine. The concentration of compound that elicits a half-maximal inhibition of the calcium mobilisation induced by PGE2 (pIC50) may then be estimated.

human EP1 receptor [1] = target: T2, human EP1 receptor (Homo sapiens, UniProt P34995); assay: Binding assay for the human prostanoid EP1 receptor (competition with [3H]-PGE2); conditions: binding to human EP1 receptor, CHO-K1 membranes, [3H]-PGE2 3 nM; averages of a number of experiments
T2 construct: expressed in transfected cells; host or cells: CHO-K1
T2 sequence (P34995 1-402): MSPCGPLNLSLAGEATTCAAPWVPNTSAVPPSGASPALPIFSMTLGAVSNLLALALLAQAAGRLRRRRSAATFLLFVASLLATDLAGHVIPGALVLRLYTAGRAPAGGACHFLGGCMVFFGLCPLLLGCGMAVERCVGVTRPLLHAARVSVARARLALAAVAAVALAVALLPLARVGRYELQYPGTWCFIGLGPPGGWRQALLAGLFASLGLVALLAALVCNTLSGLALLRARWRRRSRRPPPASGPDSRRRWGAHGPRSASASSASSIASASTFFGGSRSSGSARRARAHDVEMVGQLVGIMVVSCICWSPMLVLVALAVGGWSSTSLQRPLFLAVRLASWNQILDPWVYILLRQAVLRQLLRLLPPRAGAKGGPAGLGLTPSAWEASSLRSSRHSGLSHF
Description: Competition assay using [^3H]-PGE2.
Compound potencies are determined using a radioligand binding assay. In this assay compound potencies are determined from their ability to compete with tritiated prostaglandin E2 ([^3H]-PGE2) for binding to the human EP1 receptor. This assay utilises Chinese hamster ovary-K1 (CHO-K1) cells into which a stable vector containing the EP1 cDNA has previously been transfected. Cells are cultured in suitable flasks containing culture medium such as DMEM:F-12 supplemented with 10% v/v foetal calf serum, 2 mM L-glutamine, 0.25 mg/ml geneticin, 10 μg/ml puromycin and 10 μM indomethacin.
Cells are detached from the culture flasks by incubation in calcium and magnesium free phosphate buffered saline containing 1 mM disodium ethylenediaminetetraacetic acid (Na2EDTA) and 10 μM indomethacin for 5 min. The cells are isolated by centrifugation at 250×g for 5 mins and suspended in an ice cold buffer such as 50 mM Tris, 1 mM Na2EDTA, 140 mM NaCl, 10 μM indomethacin (pH 7.4). The cells are homogenised using a Polytron tissue disrupter (2×10 s burst at full setting), centrifuged at 48,000×g for 20 mins and the pellet containing the membrane fraction is washed (optional) three times by suspension and centrifugation at 48,000×g for 20 mins. The final membrane pellet is suspended in an assay buffer such as 10 mM 2-[N-morpholino]ethanesulphonic acid, 1 mM Na2EDTA, 10 mM MgCl2 (pH 6). Aliquots are frozen at −80° C. until required.
For the binding assay the cell membranes, competing compounds and [^3H]-PGE2 (3 nM final assay concentration) are incubated in a final volume of 100 μl for 30 min at 30° C. All reagents are prepared in assay buffer. Reactions are terminated by rapid vacuum filtration over GF/B filters using a Brandell cell harvester. The filters are washed with ice cold assay buffer, dried and the radioactivity retained on the filters is measured by liquid scintillation counting in Packard TopCount scintillation counter.
The data are analysed using non linear curve fitting techniques to determine the concentration of compound producing 50% inhibition of specific binding (IC50).

human EP1 receptor [2] = target: T2, human EP1 receptor; assay: human EP1 calcium mobilisation assay; assay type: cell-based; conditions: human EP1, CHO-K1 cells, PGE2-induced calcium mobilisation; averages of a number of experiments; read-out: functional pKi (converted)
Description: as §1, §2, §3, §4

[3] = system: rat model of chronic constriction injury; conditions: Anesthesia and Analgesia 2001, 93, 1012-7; cited from earlier work
[4] = system: rodent model of post-operative pain; conditions: Anesthesia and Analgesia 2001, 92, 233-238; cited from earlier work

SMILES	Ki (human EP3 receptor)	IC50 (human EP1 receptor [1])	also measured
CCCNC(=O)Nc1csc(-n2cc(CC(C)C)c3ccc(Cl)cc32)n1 [Example 10, N-[2-(6-Chloro-3-isobutyl-1H-indol-1-yl)-1,3-thiazol-4-yl]-N′-propylurea]	> 3.16 µM		
CC(C)Cc1cn(-c2nc(C(=O)Nc3ccncc3)cs2)c2cc(Cl)ccc12 [Example 25, 2-[6-Chloro-3-isobutyl-1H-indol-1-yl]-N-4-pyridinyl-1,3-thiazole-4-carboxamide]	> 3.16 µM		
CC(C)Cc1cn(-c2nc(-c3nc4ccccc4[nH]3)co2)c2cc(Cl)ccc12 [Example 36, 2-{2-[6-Chloro-3-isobutyl-1H-indol-1-yl]-1,3-oxazol-4-yl}-1H-benzimidazole hydrochloride]	> 3.16 µM	≤ 0.1 µM	
CC(C)Cc1cn(-c2nc(-c3nc4cc(CO)ccc4[nH]3)cs2)c2cc(Cl)ccc12 [Example 45, (2-{2-[6-Chloro-3-isobutyl-1H-indol-1-yl]-1,3-thiazol-4-yl}-1H-benzimidazol-5-yl)methanol hydrochloride]	> 3.16 µM	≤ 0.1 µM	
CC(C)Cc1cn(-c2nc(-c3nnc[nH]3)cs2)c2cc(Cl)ccc12 [Example 54, 3-[2-(6-Chloro-3-isobutyl-1H-indol-1-yl)-1,3-thiazol-4-yl]-4H-1,2,4-triazole]	> 3.16 µM		
Cc1nnc(-c2csc(-n3cc(CC(C)C)c4ccc(Cl)cc43)n2)[nH]1 [Example 55, 3-[2-(6-Chloro-3-isobutyl-1H-indol-1-yl)-1,3-thiazol-4-yl]-5-methyl-4H-1,2,4-triazole]	> 3.16 µM	≤ 0.1 µM	
CC(=O)OCc1ccc(C(=O)Nc2csc(-n3cc(CC(C)C)c4ccc(Cl)cc43)n2)cc1 [Example 56, {4-[({2-[6-Chloro-3-(2-methylpropyl)-1H-indol-1-yl]-1,3-thiazol-4-yl}amino)carbonyl]phenyl}methyl acetate]	> 3.16 µM		
Cc1cc(Cl)ccc1S(=O)(=O)NC[C@H]1C2CCC(CC2)[C@@H]1/C=C\CCCC(=O)O [ONO-8711]			hyperalgesia and allodynia [3]: reduces hyperalgesia and allodynia; mechanical hyperalgesia [4]: inhibits mechanical hyperalgesia

The next lines start with results.

Ki (human EP3 receptor)	IC50 (human EP1 receptor [1])	SMILES	also measured
> 3.16 µM		CC(C)Cc1cn(-c2nc(NC(=O)c3cccnc3)cs2)c2cc(Cl)ccc12 [Example 6, N-[2-(6-Chloro-3-isobutyl-1H-indol-1-yl)-1,3-thiazol-4-yl]nicotinamide]	
> 3.16 µM		CC(C)Cc1cn(-c2nc(NC(=O)c3ccc(CO)cc3)cs2)c2cc(Cl)ccc12 [Example 9, N-[2-(6-Chloro-3-isobutyl-1H-indol-1-yl)-1,3-thiazol-4-yl]-4-(hydroxymethyl)benzamide]	
> 3.16 µM	≤ 0.1 µM	CC(C)Cc1cn(-c2nc(C(=O)Nc3c(F)cccc3F)cs2)c2cc(Cl)ccc12 [Example 33, 2-[6-Chloro-3-isobutyl-1H-indol-1-yl]-N-(2,6-difluorophenyl)-1,3-thiazole-4-carboxamide]	Ki (human EP1 receptor [2]): ≤ 0.1 µM
> 3.16 µM		CC(C)Cc1cn(-c2nc(-c3nc4c(CO)cccc4[nH]3)cs2)c2cc(Cl)ccc12 [Example 46, (2-{2-[6-Chloro-3-isobutyl-1H-indol-1-yl]-1,3-thiazol-4-yl}-1H-benzimidazol-4-yl)methanol]	Ki (human EP1 receptor [2]): ≤ 0.1 µM
